Series [1] has as its system Hepatitis C virus. As to the kind of experiment: microbe, parasite or virus in culture. The settings on record: genotype 1b, Huh-7.
The subject of series [2] is Vero. Conditions: chlorocebus sabaeus.
Series [3] deals with CCRF-CEM. The settings on record: human.
For series [4], the system named is PBMC. The settings on record: human.
The nature of series [5]: in vitro. Conditions: human, HuH7 cells.
The nature of series [6]: in vitro. The settings on record: human, CEM cells.
A short description of series [7]: in vitro. The settings on record: human, pbmc.

Broadly, the EC50 is the concentration at which the effect is half-maximal. High values mean a need for much substance, low ones an effect from little substance. In general, EC90 refers to the concentration at which the effect reaches the 90% level. A low value points to greater potency.

Where only a bound is given, the exact number is not on record here.

With `COC(=O)N[C@H](C(=O)N1CCC[C@H]1c1ncc(-c2ccc(-c3ccc(-c4cnc([C@@H]5CCCN5C(=O)[C@@H](NC(=O)OC)C(C)C)[nH]4)cc3)cc2)[nH]1)C(C)C`, in series [1], the concentration for a half-maximal effect (EC50) is 0.01 nM and the 90% effect level (EC90) was put at 0.03 nM.
As to `COC(=O)N[C@H](C(=O)N1CCC[C@H]1c1ncc(-c2ccccc2)[nH]1)C(C)C`, the CC50 in series [2] is greater than 100 µM; in series [3] it was greater than 100 µM; in series [4] it was greater than 100 µM; in series [5] it was greater than 1 µM. The compound also gave an EC50 in series [1] greater than 1000 nM.
In the case of `COC(=O)N[C@H](C(=O)N1CCC[C@H]1c1ncc(-c2ccc(Br)cc2)[nH]1)C(C)C`, the CC50 was 48 µM in series [2], 50 µM in series [3], greater than 100 µM in series [4] and greater than 1 µM in series [5]. Besides, the concentration for a half-maximal effect (EC50) in series [1] was greater than 100 nM.
In the case of `COC(=O)N[C@H](C(=O)N1CCC[C@H]1c1ncc(-c2ccc(C#N)cc2)[nH]1)C(C)C`, the CC50 in series [2] was 33 µM; in series [3], 98 µM; in series [4], greater than 100 µM; in series [5], greater than 1 µM. The compound further showed an EC50 in series [1] greater than 100 nM.
For the compound `COC(=O)N[C@H](C(=O)N1CCC[C@H]1c1ncc(-c2ccc([N+](=O)[O-])cc2)[nH]1)C(C)C`, the CC50 is greater than 100 µM in series [2], greater than 100 µM in series [3], greater than 100 µM in series [4] and greater than 1 µM in series [5]. Moreover, in series [1], the EC50 is greater than 100 nM.
With `COC(=O)N[C@H](C(=O)N1CCC[C@H]1c1ncc(-c2ccc(OC(F)(F)F)cc2)[nH]1)C(C)C`, the CC50 in series [2] was 30 µM; in series [4], 49 µM; in series [5], greater than 1 µM; in series [6], greater than 100 µM. In series [1], this compound showed an EC50 greater than 100 nM.
For the compound `COC(=O)N[C@H](C(=O)N1CCC[C@H]1c1ncc(-c2ccc(C(F)(F)F)cc2)[nH]1)C(C)C`, the CC50 in series [2] is 26 µM; in series [5] it was greater than 1 µM; in series [6], greater than 100 µM; in series [7], greater than 100 µM. The same compound had a 50% effective concentration (EC50) in series [1] greater than 100 nM.
For `COC(=O)N[C@H](C(=O)N1CCC[C@H]1c1ncc(-c2ccc(OC)cc2)[nH]1)C(C)C`, the CC50 in series [2] was greater than 100 µM; in series [3], greater than 100 µM; in series [4], greater than 100 µM; in series [5] it was greater than 1 µM. In series [1], this compound registered an EC50 greater than 1000 nM.
Consider `COC(=O)N[C@H](C(=O)N1CCC[C@H]1c1ncc(-c2ccc(C)cc2)[nH]1)C(C)C`, for which the CC50 in series [2] was greater than 100 µM; in series [3], greater than 100 µM; in series [4], greater than 100 µM; in series [5] it was greater than 1 µM. In series [1], the concentration giving a half-maximal response (EC50) is greater than 1000 nM.
Consider `COC(=O)N[C@H](C(=O)N1CCC[C@H]1c1ncc(-c2ccc(-c3ccccc3)cc2)[nH]1)C(C)C`, for which the CC50 was 18 µM in series [2], 70 µM in series [3], 14 µM in series [4] and greater than 1 µM in series [5]. In series [1], this compound displayed an EC50 of 300 nM. Moreover, it took 900 nM to reach the 90% level in series [1] (EC90).
For the compound `COC(=O)N[C@@H](CC(C)C)C(=O)N1CCC[C@H]1c1ncc(-c2ccc(-c3ccccc3)cc2)[nH]1`, the CC50 in series [2] was 25 µM; in series [3], 61 µM; in series [4], 16 µM; in series [5] it was greater than 1 µM. This compound also showed an EC50 in series [1] greater than 100 nM. In addition, in series [1], the EC90 is greater than 1000 nM.
As to `C[C@H](NC(=O)OC(C)(C)C)C(=O)N1CCC[C@H]1c1ncc(-c2ccc(-c3ccccc3)cc2)[nH]1`, the CC50 in series [2] is 13 µM; in series [3], 11 µM; in series [4], 16 µM; in series [5], greater than 1 µM. In series [1], this compound displayed an EC50 greater than 1000 nM.
Take `C=CC[C@H](NC(C)=O)C(=O)N1CCC[C@H]1c1ncc(-c2ccc(-c3ccccc3)cc2)[nH]1`: the CC50 is 21 µM in series [2], 73 µM in series [3], 100 µM in series [4] and greater than 1 µM in series [5]. The compound also had an EC50 in series [1] greater than 1000 nM.
Take `COC(=O)N[C@H](C(=O)N1CCC[C@H]1c1ncc(-c2ccc(Cl)cc2Cl)[nH]1)C(C)C`: the CC50 is 15 µM in series [2], 56 µM in series [4], greater than 1 µM in series [5] and greater than 100 µM in series [6]. Besides, the EC50 in series [1] amounted to 1000 nM.
`COC(=O)N[C@H](C(=O)N1CCC[C@H]1c1ncc(-c2ccc(S(=O)(=O)c3ccccc3)cc2)[nH]1)C(C)C`: the CC50 in series [2] is greater than 100 µM; in series [3] it was greater than 100 µM; in series [4], greater than 100 µM; in series [5] it was greater than 1 µM. In addition, the EC50 in series [1] was greater than 100 nM.
For `COC(=O)N[C@H](C(=O)N1CCC[C@H]1c1nc(Cl)c(-c2ccc(N=[N+]=[N-])cc2)[nH]1)C(C)C`, the CC50 was 12 µM in series [2], 94 µM in series [4], greater than 1 µM in series [5] and greater than 100 µM in series [6]. The compound further displayed an EC50 in series [1] of 4 nM. Besides, it took 14 nM to reach the 90% level in series [1] (EC90).
Turning to `COC(=O)N[C@H](C(=O)N1CCC[C@H]1c1nc(I)c(-c2ccc(N=[N+]=[N-])cc2)[nH]1)C(C)C`, the CC50 in series [2] was 14.2 µM; in series [4], 64.2 µM; in series [5] it was greater than 1 µM; in series [6], greater than 100 µM. It took 2 nM to reach a half-maximal effect in series [1] (EC50). Further, the EC90 in series [1] worked out at 3 nM.
Consider `COC(=O)N[C@H](C(=O)N1CCC[C@H]1c1ncc(-c2ccc(-c3ccc(C#N)cc3)cc2)[nH]1)C(C)C`, for which the CC50 in series [2] was 33 µM; in series [3], 98 µM; in series [4], greater than 100 µM; in series [5], greater than 1 µM. This compound also came in with an EC50 in series [1] greater than 100 nM.
Take `COC(=O)N[C@H](C(=O)N1CCC[C@H]1c1ncc(-c2ccc(-c3ccc(C)cc3)cc2)[nH]1)C(C)C`: the CC50 was 14 µM in series [2], 16 µM in series [3], 90 µM in series [4] and greater than 1 µM in series [5]. The compound further yielded an EC50 in series [1] greater than 100 nM.
Turning to `COC(=O)N[C@H](C(=O)N1CCC[C@H]1c1ncc(-c2ccc(-c3cccc(O)c3)cc2)[nH]1)C(C)C`, the CC50 in series [2] was 50 µM; in series [5], greater than 1 µM; in series [6], greater than 100 µM; in series [7], greater than 100 µM. The compound also came in with a half-maximal effective concentration (EC50) in series [1] greater than 1000 nM.
For `COC(=O)N[C@H](C(=O)N1CCC[C@H]1c1ncc(-c2ccc(-c3ccc(OC)cc3)cc2)[nH]1)C(C)C`, the CC50 in series [2] is 13 µM; in series [3] it was 30 µM; in series [4], 85 µM; in series [5] it was greater than 1 µM. The EC50 in series [1] is greater than 100 nM.
Turning to `COC(=O)N[C@H](C(=O)N1CCC[C@H]1c1ncc(-c2ccc(-c3ccc(C(N)=O)cc3)cc2)[nH]1)C(C)C`, the CC50 is greater than 100 µM in series [2], greater than 100 µM in series [3], greater than 100 µM in series [4] and greater than 1 µM in series [5]. The compound further gave an EC50 in series [1] of 21 nM. The compound further registered an EC90 in series [1] of 76 nM.
Regarding `COC(=O)N[C@H](C(=O)N1CCC[C@H]1c1ncc(-c2ccc(-c3ccc(C(=O)OC)cc3)cc2)[nH]1)C(C)C`, the CC50 was 17 µM in series [2], 61 µM in series [3], 14 µM in series [4] and greater than 1 µM in series [5]. The compound also displayed an EC50 in series [1] greater than 100 nM.
The corresponding values for `COC(=O)N[C@H](C(=O)N1CCC[C@H]1c1ncc(-c2ccc(-c3ccc(S(C)(=O)=O)cc3)cc2)[nH]1)C(C)C` are 6 µM, 54 µM, greater than 100 µM, greater than 1 µM and greater than 100 nM.
For `COC(=O)N[C@H](C(=O)N1CCC[C@H]1c1ncc(-c2ccc(-c3ccc(N=[N+]=[N-])cc3)cc2)[nH]1)C(C)C`, in that order: 11 µM, 11 µM, 37 µM, greater than 1 µM and greater than 100 nM.
The corresponding values for `COC(=O)N[C@H](C(=O)N1CCC[C@H]1c1nc(Cl)c(-c2ccc(-c3ccc(C(F)(F)F)cc3)cc2)[nH]1)C(C)C` are 10 µM, 10 µM, 11 µM, greater than 1 µM and greater than 100 nM.
Take `COC(=O)N[C@H](C(=O)N1CCC[C@H]1c1ncc(-c2ccc(N)cc2)[nH]1)C(C)C`: the CC50 in series [2] was greater than 100 µM; in series [3], greater than 100 µM; in series [4], greater than 100 µM; in series [5], greater than 1 µM. Moreover, in series [1], the midpoint of the response, the EC50, lay at 200 nM. Moreover, the EC90 in series [1] came to 300 nM.
As to `COC(=O)Nc1ccc(-c2cnc([C@@H]3CCCN3C(=O)[C@@H](NC(=O)OC)C(C)C)[nH]2)cc1`, the CC50 was greater than 100 µM in series [2], greater than 100 µM in series [3], greater than 100 µM in series [4] and greater than 1 µM in series [5]. In series [1], this compound returned an EC50 greater than 100 nM.
With `COC(=O)N[C@H](C(=O)N1CCC[C@H]1c1ncc(-c2ccc(NS(C)(=O)=O)cc2)[nH]1)C(C)C`, the CC50 in series [2] is 13 µM; in series [5] it was greater than 1 µM; in series [6] it was greater than 100 µM; in series [7], greater than 100 µM. The EC50 in series [1] is greater than 100 nM.

Source of the values: ChEMBL document CHEMBL2346553, “Synthesis and evaluation of non-dimeric HCV NS5A inhibitors” (Bioorg Med Chem Lett, 2013).
